One experiment has as its system USP10. The conditions noted are these: cited from earlier work.
The test system of experiment [1] is FLT3. As to the kind of experiment: Immunoblot of FLT3 protein levels in Ba/F3-FLT3-ITD cells. In kind it is cell-based, murine. The conditions noted are these: for Induction of FLT3 degradation: Ba/F3-FLT3-ITD cells, 24 hr, 10-20 µM; for FLT3 protein levels: all treated oncogenic FLT3-expressing cells, 24 h. As for the experimental part:
(§1) Protein lysate preparation, immunoblotting and immunoprecipitation were carried out as previously described.[21]
(In general: A western blot detects proteins with antibodies after separation by electrophoresis.)

In experiment [2] the test system is SYK. As to the kind of experiment: Immunoblot of SYK protein levels in Ba/F3-FLT3-ITD cells. In kind it is cell-based, murine. The conditions noted are these: 24 h of treatment. As for the experimental part: as §1
The subject of the next experiment is USP7. To be noted: cited from earlier work.
The subject of experiment [3] is FLT3. As to the kind of experiment: Immunoblot of FLT3 in Ba/F3-FLT3-ITD+TKD point mutant cells. In kind it is cell-based, murine. To be noted: Ba/F3-FLT3-ITD+TKD point mutant cells (A627T, F691L, G697R, F691I), 24 hr, 5-10 µM. As for the experimental part:
as §1

Experiment [4] relates to SYK. As to the kind of experiment: Immunoblot of SYK in Ba/F3-FLT3-ITD+TKD point mutant cells. It counts as cell-based, murine. To be noted: Ba/F3-FLT3-ITD+TKD point mutant cells (A627T, F691L, G697R, F691I), 24 hr, 5-10 µM. As for the experimental part: as §1
Experiment [5] relates to SYK. As to the kind of experiment: Immunoblot of SYK protein levels in PBMCs from normal donors. In kind it is cell-based. To be noted: 24 h of treatment. As for the experimental part:
as §1

For experiment [6], the system named is SYK. As to the kind of experiment: Immunoblot of SYK protein levels in MV4-11 cells. It counts as cell-based. To be noted: 24 h of treatment. The protocol:
as §1

Experiment [7] deals with FLT3-ITD-positive MOLM14 cells. Also noted: method as in PMID 28967922. The conditions noted are these: cited from earlier work.
For a further experiment, the system named is Ba/F3-FLT3-ITD cells. Set-up: method as in PMID 28967922. To be noted: cited from earlier work.

These results are taken from PMC7156412, “Inhibition of the deubiquitinase USP10 induces degradation of SYK” (British Journal of Cancer, 2020).

Sequence of SYK (P48025 whole entry): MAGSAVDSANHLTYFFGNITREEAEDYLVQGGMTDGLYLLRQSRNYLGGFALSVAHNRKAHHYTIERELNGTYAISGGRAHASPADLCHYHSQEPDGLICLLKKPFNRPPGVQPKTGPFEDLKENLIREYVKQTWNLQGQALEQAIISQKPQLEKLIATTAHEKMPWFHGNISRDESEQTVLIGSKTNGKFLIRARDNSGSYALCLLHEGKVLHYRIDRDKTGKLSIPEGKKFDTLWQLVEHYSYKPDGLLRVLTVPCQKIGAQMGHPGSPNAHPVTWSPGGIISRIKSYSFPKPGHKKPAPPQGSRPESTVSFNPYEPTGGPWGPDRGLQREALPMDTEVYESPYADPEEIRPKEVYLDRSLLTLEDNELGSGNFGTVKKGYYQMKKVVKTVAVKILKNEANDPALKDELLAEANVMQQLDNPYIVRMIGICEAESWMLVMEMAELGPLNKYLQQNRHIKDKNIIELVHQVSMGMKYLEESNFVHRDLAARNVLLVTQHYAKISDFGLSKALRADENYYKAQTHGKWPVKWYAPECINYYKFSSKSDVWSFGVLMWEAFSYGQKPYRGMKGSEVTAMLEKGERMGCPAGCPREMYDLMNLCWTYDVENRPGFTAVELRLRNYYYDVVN

Regarding `CCCN(CCC)CCCNC(=O)c1ccc2c(Cl)c3c(nc2c1)CCCC3` [C598-0466], the “USP10 inhibitory activity in biochemical assay” value in the experiment on USP10 (Ub-AMC as substrate, as previously determined) is recorded as “showing activity against USP10”. The “Induction of FLT3 degradation” value in the experiment on FLT3 [1] is recorded as “Induction of FLT3 degradation”. The “Effect on SYK protein levels” value in the experiment on SYK [2] is given as “strongly inducing degradation of SYK protein”.

Consider `CC(=O)c1cc([N+](=O)[O-])c(Sc2ccc(F)cc2F)s1` [P22077], for which the “Inhibition of USP7 activity” value in the experiment on USP7 was “inhibit the activity”. Besides, the “Effect on FLT3 protein levels” value in the experiment on FLT3 [3] was “induces degradation of SYK and FLT3”. In addition, the “Effect on SYK protein levels” value was “induces degradation of SYK and FLT3” in the experiment on SYK [4]; “loss of SYK protein” in the experiment on SYK [5]; “downregulated” in the experiment with SYK [6]; “downregulated” in the experiment with SYK [2]. The “Inhibition of USP10 activity” value in the experiment on USP10 was “inhibit the activity”. In the experiment on FLT3 [1], the “Induction of FLT3 degradation” value is “Induction of FLT3 degradation”. In addition, the FLT3 protein levels entry in the experiment on FLT3 [1] was “lower”.

Consider HBX19818, for which the “Inhibition of USP7 activity” value in the experiment with USP7 is listed as “inhibit the activity”. In addition, the “Combination effect with crenolanib or midostaurin” value (in experiment [7]; in the experiment on Ba/F3-FLT3-ITD cells) was “synergistic effects” throughout. Further, the “Effect on SYK protein levels” value is on record as “loss of SYK protein” with SYK [5], “downregulated” in the experiment on SYK [6] and “downregulated” with SYK [2]. For the same compound, the “Inhibition of USP10 activity” value in the experiment on USP10 was “inhibit the activity”. Further, in the experiment with FLT3 [1], the “Induction of FLT3 degradation” value is recorded as “Induction of FLT3 degradation”. In addition, in the experiment with FLT3 [1], the FLT3 protein levels entry is “lower”.
